Test results: the NIST ThermoML archive (doi:10.1016/j.jct.2018.12.031)
± gives the expanded uncertainty stated by the source.

Experiments:
[1] = xn = mol fraction of the nth substance listed; conditions: 100 kPa, Liquid; for speed of sound: Frequency=3 MHz, Linear variable-path acoustic interferometer; for mass density: Pycnometric method
[2] = 100 kPa, Liquid, Frequency=3 MHz, Linear variable-path acoustic interferometer

N#Cc1ccccc1 [benzonitrile] + C=C(C)C(=O)OCC
[1], x1 = 1
Conditions | mass density [kg/m3] | speed of sound [m/s]
293.15 K | 1003.99 ± 1 | 1436.9 ± 1.7
298.15 K | 1000.32 ± 1 | 1418.2 ± 1.7
303.15 K | 996.65 ± 1 | 1400.7 ± 1.7
308.15 K | 992.98 ± 1 | 1384 ± 1.7
313.15 K | 989.31 ± 1 | 1368.2 ± 1.7
318.15 K | 985.64 ± 1 | 1352.9 ± 1.7

C=C(C)C(=O)OC [methyl methacrylate] + N#Cc1ccccc1
[1], x2 = 0
Conditions | mass density [kg/m3] | speed of sound [m/s]
293.15 K | 943.38 ± 1 | 1200.5 ± 1.6
298.15 K | 937.64 ± 1 | 1183.6 ± 1.6
303.15 K | 931.9 ± 1 | 1168.5 ± 1.6
308.15 K | 926.16 ± 1 | 1152.6 ± 1.6
313.15 K | 920.42 ± 1 | 1135.4 ± 1.6
318.15 K | 914.67 ± 1 | 1118.3 ± 1.6

N#Cc1ccccc1 [benzonitrile] + C=C(C)C(=O)OCCCC
[1], x1 = 1
Conditions | mass density [kg/m3] | speed of sound [m/s]
293.15 K | 1003.99 ± 1 | 1436.9 ± 1.7
298.15 K | 1000.32 ± 1 | 1418.2 ± 1.7
303.15 K | 996.65 ± 1 | 1400.7 ± 1.7
308.15 K | 992.98 ± 1 | 1384 ± 1.7
313.15 K | 989.31 ± 1 | 1368.2 ± 1.7
318.15 K | 985.64 ± 1 | 1352.9 ± 1.7

N#Cc1ccccc1 [benzonitrile]
[2]
Conditions | speed of sound [m/s]
293.15 K | 1436.9 ± 1.7
298.15 K | 1418.2 ± 1.7
303.15 K | 1400.7 ± 1.7
308.15 K | 1384 ± 1.7
313.15 K | 1368.2 ± 1.7
318.15 K | 1352.9 ± 1.7
